Legend:
Assay in all cases: relative viability (nuclei count vs DMSO), 5 days (fraction); higher = more cells survive
Dinaciclib + Trametinib = compound: CCc1cnn2c(NCc3ccc[n+]([O-])c3)cc(N3CCCC[C@H]3CCO)nc12 [Dinaciclib] + CC(=O)Nc1cccc(-n2c(=O)n(C3CC3)c(=O)c3c(Nc4ccc(I)cc4F)n(C)c(=O)c(C)c32)c1 [Trametinib] (partner 0.02 µM)
In short: (§1)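 After 5 days of treatment, lung cancer cells in 1536-well plates were fixed and stained in a single step (final 0.05% Triton X-100, 1% formaldehyde, 1 ug/ml Hoechst) and their nuclei counted on 4× images. Treatment had been applied by pin tool the day after seeding as one drug alone or as a fixed anchor-drug dose with five library-drug doses (not always all listed) in √10 steps. Relative viability is the nuclei count of treated wells divided by that of vehicle wells, and values are medians of duplicate plates.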

Dinaciclib + AZD7762 = compound: CCc1cnn2c(NCc3ccc[n+]([O-])c3)cc(N3CCCC[C@H]3CCO)nc12 [Dinaciclib] + NC(=O)Nc1cc(-c2cccc(F)c2)sc1C(=O)N[C@H]1CCCNC1 [AZD7762] (partner 0.2 µM)
In short: as §1

Dinaciclib + OSI-027 = compound: CCc1cnn2c(NCc3ccc[n+]([O-])c3)cc(N3CCCC[C@H]3CCO)nc12 [Dinaciclib] + COc1cccc2cc(-c3nc([C@H]4CC[C@H](C(=O)O)CC4)n4ncnc(N)c34)[nH]c12 [OSI-027] (partner 0.5 µM)
In short: as §1

Dinaciclib + Pemetrexed = compound: CCc1cnn2c(NCc3ccc[n+]([O-])c3)cc(N3CCCC[C@H]3CCO)nc12 [Dinaciclib] + Nc1nc2[nH]cc(CCc3ccc(C(=O)N[C@@H](CCC(=O)O)C(=O)O)cc3)c2c(=O)[nH]1 [Pemetrexed] (partner 0.2 µM)
In short: as §1

Dinaciclib + Olaparib = compound: CCc1cnn2c(NCc3ccc[n+]([O-])c3)cc(N3CCCC[C@H]3CCO)nc12 [Dinaciclib] + O=C(c1cc(Cc2n[nH]c(=O)c3ccccc23)ccc1F)N1CCN(C(=O)C2CC2)CC1 [Olaparib] (partner 8 µM)
In short: as §1

Dinaciclib + Decitabine = compound: CCc1cnn2c(NCc3ccc[n+]([O-])c3)cc(N3CCCC[C@H]3CCO)nc12 [Dinaciclib] + Nc1ncn([C@H]2C[C@H](O)[C@@H](CO)O2)c(=O)n1 [Decitabine] (partner 2 µM)
In short: as §1

Dinaciclib + Palbociclib = compound: CCc1cnn2c(NCc3ccc[n+]([O-])c3)cc(N3CCCC[C@H]3CCO)nc12 [Dinaciclib] + CC(=O)c1c(C)c2cnc(Nc3ccc(N4CCNCC4)cn3)nc2n(C2CCCC2)c1=O [Palbociclib] (partner 0.5 µM)
In short: as §1

Dinaciclib + Vorinostat = compound: CCc1cnn2c(NCc3ccc[n+]([O-])c3)cc(N3CCCC[C@H]3CCO)nc12 [Dinaciclib] + O=C(CCCCCCC(=O)Nc1ccccc1)NO [Vorinostat] (partner 1 µM)
In short: as §1

Dinaciclib + Tozasertib = compound: CCc1cnn2c(NCc3ccc[n+]([O-])c3)cc(N3CCCC[C@H]3CCO)nc12 [Dinaciclib] + Cc1cc(Nc2cc(N3CCN(C)CC3)nc(Sc3ccc(NC(=O)C4CC4)cc3)n2)n[nH]1 [Tozasertib] (partner 0.1 µM)
In short: as §1

Dinaciclib = compound: CCc1cnn2c(NCc3ccc[n+]([O-])c3)cc(N3CCCC[C@H]3CCO)nc12 [Dinaciclib]
In short: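 After an overnight hold at 37 °C, lung cancer cell lines in 1536-well plates were pinned with five library-drug doses (not always all listed), each √10 from the next, on vehicle-anchored plates. The cells stayed 5 days without fresh medium, then a one-step fix, permeabilisation and Hoechst stain preceded 4× imaging and MetaXpress nuclear counts. A plate passed only with control CV under 25% and at least one doubling. Viability is the median, over plates, of treated-well nuclei relative to vehicle-well nuclei.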

Cell Line NCI-H1648 has a relative viability (Dinaciclib + Trametinib; first compound 0.009487 µM) of 0.49, a relative viability (Dinaciclib + Trametinib; first compound 0.03 µM) of 0.346 and a relative viability (Dinaciclib + Trametinib; first compound 0.09487 µM) of 0.241. For the same cell line, the relative viability (Dinaciclib + Trametinib; first compound 0.3 µM) was 0.264, the relative viability (Dinaciclib + AZD7762; first compound 0.009487 µM) was 0.85 and the relative viability (Dinaciclib + AZD7762; first compound 0.03 µM) was 0.577. For the same cell line, the relative viability (Dinaciclib + AZD7762; first compound 0.09487 µM) was 0.266, the relative viability (Dinaciclib + AZD7762; first compound 0.3 µM) was 0.24 and the relative viability (Dinaciclib + OSI-027; first compound 0.009487 µM) was 0.263. The relative viability (Dinaciclib + OSI-027; first compound 0.03 µM) was 0.259, the relative viability (Dinaciclib + OSI-027; first compound 0.09487 µM) was 0.265 and the relative viability (Dinaciclib + OSI-027; first compound 0.3 µM) was 0.212. It also gave a relative viability (Dinaciclib + Pemetrexed; first compound 0.009487 µM) of 0.644, a relative viability (Dinaciclib + Pemetrexed; first compound 0.03 µM) of 0.677 and a relative viability (Dinaciclib + Pemetrexed; first compound 0.09487 µM) of 0.25. It also gave a relative viability (Dinaciclib + Pemetrexed; first compound 0.3 µM) of 0.199, a relative viability (Dinaciclib + Olaparib; first compound 0.009487 µM) of 0.521 and a relative viability (Dinaciclib + Olaparib; first compound 0.03 µM) of 0.387. The relative viability (Dinaciclib + Olaparib; first compound 0.09487 µM) was 0.234, the relative viability (Dinaciclib + Olaparib; first compound 0.3 µM) was 0.219 and the relative viability (Dinaciclib + Decitabine; first compound 0.009487 µM) was 0.468. It also gave a relative viability (Dinaciclib + Decitabine; first compound 0.03 µM) of 0.218, a relative viability (Dinaciclib + Decitabine; first compound 0.09487 µM) of 0.231 and a relative viability (Dinaciclib + Decitabine; first compound 0.3 µM) of 0.217. For the same cell line, the relative viability (Dinaciclib + Palbociclib; first compound 0.009487 µM) was 0.227, the relative viability (Dinaciclib + Palbociclib; first compound 0.03 µM) was 0.223 and the relative viability (Dinaciclib + Palbociclib; first compound 0.09487 µM) was 0.265. It also gave a relative viability (Dinaciclib + Palbociclib; first compound 0.3 µM) of 0.224, a relative viability (Dinaciclib + Vorinostat; first compound 0.009487 µM) of 0.275 and a relative viability (Dinaciclib + Vorinostat; first compound 0.03 µM) of 0.434. For the same cell line, the relative viability (Dinaciclib + Vorinostat; first compound 0.09487 µM) was 0.294, the relative viability (Dinaciclib + Vorinostat; first compound 0.3 µM) was 0.262 and the relative viability (Dinaciclib + Tozasertib; first compound 0.009487 µM) was 0.503. It also gave a relative viability (Dinaciclib + Tozasertib; first compound 0.03 µM) of 0.274, a relative viability (Dinaciclib + Tozasertib; first compound 0.09487 µM) of 0.166 and a relative viability (Dinaciclib + Tozasertib; first compound 0.3 µM) of 0.207. The relative viability (Dinaciclib; 0.009487 µM) was 0.788, the relative viability (Dinaciclib; 0.03 µM) was 0.301 and the relative viability (Dinaciclib; 0.09487 µM) was 0.247. It also gave a relative viability (Dinaciclib; 0.3 µM) of 0.29.

Reference: the supplement of paper PMC10307832
